In patent US4521423A, “7,8,9,10-Tetrahydrobenzo[h]quinolin-9-amine derivatives and compositions and methods for treating depression employing them” (Ayerst, McKenna & Harrison, Ltd., priority 1983, dated 1985):

Experiments:
[1] = system: serotonin uptake; test: in vitro [3H]serotonin uptake inhibition, rat brain preparation; assay type: biochemical; details: concentration of 1×10^-6 moles
From the text: (§1) For example, the ability of the present compounds to block substantially the uptake of norepinephrine and serotonin, characteristic properties of antidepressants, can be shown in the in vitro test using rat brain preparation as described by M. H. Kannengiesser, P. Hunt and J.-P. Raynaud, Biochem. Pharmacol., 22, 73 (1973); see also E. G. Shaskan and S. H. Snyder, J. Pharmacol. Exptl. Therap., 175, 404 (1970), and J. Glowinski and L. L. Iversen, J. Neurochemistry, 13, 655 (1966).

[2] = system: norepinephrine uptake; test: in vitro [3H]norepinephrine uptake inhibition, rat brain preparation; assay type: biochemical; details: concentration of 1×10^-6 moles
From the text: as §1

CCCN(CCC)C1CCc2ccc3cccnc3c2C1 (centres unmarked) [7,8,9,10-Tetrahydro-N,N-dipropylbenzo[h]quinolin-9-amine]
inhibition of [3H]serotonin uptake [1]: 57% | inhibition of [3H]norepinephrine uptake [2]: 52%
